Measurements from publication PMC4418728, “A High Throughput Protein Microarray Approach to Classify HIV Monoclonal Antibodies and Variant Antigens” (PLoS ONE, 2015).
No end group written: not given here.

How the values were obtained:
mAb 2F5 = assay: In-solution competition ELISA; assay type: binding, human; conditions: competition with biotinylated peptide bio-57 (0.1 μg/ml) for mAb 2F5 (0.2 μg/ml), peptide 1:3 dilutions from 0.04 mM, 2 h at 37°C, duplicate, at least two experiments; for IC50: read-out: IC50 of competitor peptide, mAb 2F5
Procedure: (§1) The in-solution competition ELISA was performed according to Stanfield and colleagues. In brief, 96-well plates were coated o/n with 200 ng/well neutravidin (Pierce) in PBS at 4°C and blocked with 4% NFDM for 1 h at RT. Different competing MPER peptide analogs (serially diluted 1:3 in 1% NFDM at a starting concentration of 0.04 mM) were mixed with a constant concentration of biotinylated peptide bio-0705 (0.1 μg/ml) or bio-57 (0.1 μg/ml) and the corresponding human mAb 4E10 (0.5 μg/ml) or mAb 2F5 (0.2 μg/ml), respectively. The antibody/peptide mixture was incubated for 2 h at 37°C, subsequently transferred to the neutravidin plates and incubated at 37°C for 20 min. Bound antibodies were detected with HRP labeled goat anti human F(ab)2 conjugate (Pierce). After 1 h at RT, wells were developed, stopped and read as described above. The concentration of competitor peptide corresponding to a half-maximal signal (IC50) was determined by nonlinear fit interpolation of the resulting binding curve (GraphPad PRISM 5.0 software). Each peptide competitor was tested in duplicate in at least two separate experiments.

mAb 4E10 = assay: In-solution competition ELISA; assay type: binding, human; conditions: for IC50: read-out: IC50 of competitor peptide, mAb 4E10
Procedure: as §1

[1] = competition with biotinylated peptide bio-0705 (0.1 μg/ml) for mAb 4E10 (0.5 μg/ml), peptide 1:3 dilutions from 0.04 mM, 2 h at 37°C, duplicate, at least two experiments

## ELDKWASLWNWFDITNWLWYIKIEELKSKIKRIENEIKRIKK [compound 09128]
mAb 2F5
  IC50: 76.3 nM
mAb 4E10; [1]
  IC50: 0.9 nM
mAb 4E10; in-solution competition assay
  enhancement in IC50 compared to control peptide 94.1, mAb 4E10: more than 80 fold

## ELDKWASLWNWFNITNWLWYIKIEELKSKIKRIENEIKRIKK [C22-pT, reference compound]
mAb 2F5
  IC50: > 10000 nM
mAb 4E10; [1]
  IC50: 3270 nM

## WTLNIFWIWSYLDWSNKKKK-NH2 [compound 08023, scrambled negative control peptide based on 09122]
mAb 2F5
  IC50 of competitor peptide, mAb 2F5: did not interact
mAb 4E10; [1]
  IC50 of competitor peptide, mAb 4E10: did not interact
